Measured values published in patent US5134156A, “Pharmaceutical composition and method for angiogenesis inhibition” (Zaidan Hojin Biseibutsu Kagaku Kai, priority 1989, dated 1992).

Tests used:
aminopeptidase M = conditions: known from the literature; cited from earlier work
[1] = I.A.M. Symposia on Microbiology, No. 6 and U.S. Pat. No. 3,240,787; cited from earlier work
[2] = Kokai No. 15840/86 and U.S. Pat. No. 4,663,342; cited from earlier work
[3] = test system: chorio-allantoic membrane; test: Development/formation of chorio-allantoic membrane in the incubated chicken egg; format: in vivo
Method: (§1) Fertilized chicken eggs were incubated for 4 days, and one hole was then bored by a gimlet at the top of the air chamber of the incubated eggs and another hole was bored at the lower lateral part of the egg. The white of egg (about 2 ml) was removed by suction at the lower hole of the egg. The air within the air chamber was sucked off through the hole bored at the top of the air chamber of the egg so that the eggshell membrane was released from the chorio-allantoic membrane (CAM) of the chicken embryo. The hole at the lower lateral part of the egg was then sealed. A part of the eggshell was then cut off from the top of the air chamber of the egg and a silicone ring having an inner diameter of 3 mm was placed directly on the chorio-allantoic membrane (having a diameter of 1 to 3 mm) in each egg, followed by pouring a solution (10 μl) containing a predetermined amount of actinonin and 1% methylcellulose in physiological saline into the silicone ring. The top of the air chamber of the egg was covered by a cap and the eggs were then further incubated for 2 days in an incubator. After this further incubation for 2 days, intralipid was injected into the CAM and the CAM so treated was photographed for estimation of the development of blood vessels.

chicken embryo = test: Growth of the chicken embryo, visually observed; format: in vivo; conditions: 500 μg to 10 μg per CAM
Method: as §1

mice = test: Acute toxicity tests in mice by intravenous injection; format: in vivo; conditions: 400 mg/kg
[4] = test system: angiogenesis in chorio-allantoic membrane (CAM) of the chicken embryo; test: Inhibition of angiogenesis in chorio-allantoic membrane (CAM) of the chicken embryo in the incubated chicken egg; format: in vivo; conditions: 500 μg to 10 μg per CAM
[5] = Kokai No. 4228/87; cited from earlier work
[6] = test system: angiogenesis in chorio-allantoic membrane (CAM) of the chicken embryo; test: Inhibition of angiogenesis in chorio-allantoic membrane (CAM) of the chicken embryo in the incubated chicken egg; format: in vivo; conditions: for Degree of Inhibition I: number of CAM / Degree of Inhibition II: number of CAM / Degree of Inhibition III: number of CAM / Degree of Inhibition 0: number of CAM: n = 5 tested CAM, 2 days incubation; for Degree of Inhibition I: number of CAM: I-degree: avascular area 2 mm to 4 mm in diameter; for Degree of Inhibition II: number of CAM: II-degree: avascular area 4 mm to 6 mm in diameter; for Degree of Inhibition III: number of CAM: III-degree: avascular area greater than 6 mm in diameter; for Degree of Inhibition 0: number of CAM: zero-degree: avascular area less than 2 mm in diameter
Method: as §1
Degree of inhibition to the angiogenesis was evaluated in term of the following four scales of zero degree to III-degree, according to the method of Crum et al (see Crum R., Szabo S., and Folkman J.; A new class of steroid inhibits angiogenesis in the presence of heparin or a heparin fragment in the "Science" 230, pp. 1375-1378 (1985)). Thus, the degree of inhibition to angiogenesis were estimated as follows:
Zero-degree . . . The avasuclar area where the blood vessels were not developed has a size of less than 2 mm in its diameter.
I-degree . . . The avascular area has a size of from 2 mm to 4 mm in its diameter.
II-degree . . . The avascular area has a size of from 4 mm to 6 mm in its diameter.
III-degree . . . The avascular area has a size of greater than 6 mm in its diameter.
In Table 1 below, there are shown the estimated degrees of the angiogenesis-inhibiting activity of actinonin at a dose of 10 to 100 μg per CAM.

Compound: CCCCC[C@H](CC(=O)NO)C(=O)N[C@H](C(=O)N1CCC[C@H]1CO)C(C)C [actinonin]
- Activity inhibitory to aminopeptidase M (aminopeptidase M): exhibits an activity inhibitory to aminopeptidase M
- Antibacterial activity [1]: antibacterially active
- Immunopotentiating effect [2]: effective as an immunopotentiating agent
- Inhibition to the development of chorio-allantoic membrane ([3]; 500 μg to 10 μg per CAM, compared to untreated membranes): chorio-allantoic membranes of smaller dimensions as compared to those of the untreated membranes
- Inhibition of the formation of chorio-allantoic membrane ([3]; conclusion from the CAM test): without inhibiting the formation of chorio-allantoic membrane
- Growth of the chicken embryo as a whole (chicken embryo): it was not found that the growth of the chicken embryo as a whole can be inhibited
- Deaths in acute toxicity tests (mice): no deaths
- Inhibition of angiogenesis in the chorio-allantoic membrane [4]: can inhibit the angiogenesis
- Analgesic effect [5]: effective as an analgesic agent
- Activity inhibitory to the angiogenesis in CAM ([6]; 10 μg/CAM): shows a high activity inhibitory to the angiogenesis in CAM
- Degree of Inhibition I: number of CAM ([6]; 10 μg/CAM): 2
- Degree of Inhibition II: number of CAM ([6]; 10 μg/CAM): 1
- Degree of Inhibition III: number of CAM ([6]; 10 μg/CAM): 1
- Degree of Inhibition 0: number of CAM ([6]; 10 μg/CAM): 1
- Degree of Inhibition I: number of CAM ([6]; 50 μg/CAM): 1
- Degree of Inhibition II: number of CAM ([6]; 50 μg/CAM): 2
- Degree of Inhibition III: number of CAM ([6]; 50 μg/CAM): 1
- Degree of Inhibition 0: number of CAM ([6]; 50 μg/CAM): 1
- Degree of Inhibition I: number of CAM ([6]; 100 μg/CAM): 1
- Degree of Inhibition II: number of CAM ([6]; 100 μg/CAM): 1
- Degree of Inhibition III: number of CAM ([6]; 100 μg/CAM): 1
- Degree of Inhibition 0: number of CAM ([6]; 100 μg/CAM): 2
- Angiogenesis-inhibiting activity ([6]; doses of 10 to 100 μg per CAM): shows an angiogenesis-inhibiting activity
